According to article PMC11859928, “Design, Synthesis, and Antiproliferative Activity of Novel Indole/1,2,4-Triazole Hybrids as Tubulin Polymerization Inhibitors” (Pharmaceuticals, 2025):
Read-outs that look alike come from different tables or passages of the source.

Experiments:
CAKI-1 = assay: NCI five-dose assay; type: cell-based, human; conditions: for LC50 / GI50: Homo sapiens; for GI50: read-out: GI50 Conc. per Cell Lines
SF-268 [1] = assay: NCI five-dose assay; type: cell-based, human; conditions: for CC50 / GI50: Homo sapiens; for CC50: read-out: LC50 (the source's name); for GI50: read-out: GI50 Conc. per Cell Lines
NCI 60 cell lines = assay: NCI one-dose assay, full panel; type: cell-based, human; conditions: Homo sapiens, 60 cell, read-out: cell growth inhibition percentage, range
HOP-92 = assay: NCI one-dose assay; type: cell-based, human; conditions: Homo sapiens, HOP-92, HOP-92, Non-small cell lung cancer, read-out: Cell growth inhibition %
A498 = assay: NCI one-dose assay; type: cell-based, human; conditions: for inhibition at 10 µM: Homo sapiens, A498, A498, Renal cancer, read-out: Cell growth inhibition %
786-0 = assay: NCI one-dose assay; type: cell-based, human; conditions: for inhibition at 10 µM: Homo sapiens, 786-0, 786-0, Renal cancer, read-out: Cell growth inhibition %
UO-31 = assay: NCI one-dose assay; type: cell-based, human; conditions: Homo sapiens, UO-31, UO-31, Renal cancer, read-out: Cell growth inhibition %
MALME-3M = assay: NCI five-dose assay; type: cell-based, human; conditions: for CC50 / GI50: Homo sapiens; for CC50: read-out: LC50 (the source's name); for GI50: read-out: GI50 Conc. per Cell Lines
K-562 = assay: NCI five-dose assay; type: cell-based, human; conditions: Homo sapiens, K562; for CC50: read-out: LC50 (the source's name); for GI50: read-out: GI50 Conc. per Cell Lines
EKVX [2] = assay: NCI five-dose assay; type: cell-based, human; conditions: for CC50 / GI50: Homo sapiens; for CC50: read-out: LC50 (the source's name); for GI50: read-out: GI50 Conc. per Cell Lines
ACHN [3] = assay: NCI five-dose assay; type: cell-based, human; conditions: for LC50 / GI50: Homo sapiens; for GI50: read-out: GI50 Conc. per Cell Lines
Renal cancer subpanel = assay: NCI five-dose assay, subpanel mean; type: cell-based, human; conditions: for GI50: Homo sapiens, read-out: GI50 Subpanel MID b; for GI50 Selectivity Ratio (MID a/MID b): Renal cancer subpanel
NCI-H460 = assay: NCI one-dose assay; type: cell-based; conditions: Homo sapiens, NCI-H460, Non-small cell lung cancer, read-out: Cell growth inhibition %
A549/ATCC = assay: NCI one-dose assay; type: cell-based; conditions: Homo sapiens, Non-small cell lung cancer, read-out: Cell growth inhibition %
OVCAR-3 = assay: NCI one-dose assay; type: cell-based; conditions: Homo sapiens, OVCAR-3, Ovarian cancer, read-out: Cell growth inhibition %
RPMI-8226 = assay: NCI one-dose assay; type: cell-based; conditions: Homo sapiens, RPMI-8226, Leukemia, read-out: Cell growth inhibition %
LOX IMVI = assay: NCI one-dose assay; type: cell-based; conditions: Homo sapiens, Melanoma, read-out: Cell growth inhibition %
HL-60(TB) = assay: NCI one-dose assay; type: cell-based; conditions: Homo sapiens, Leukemia, read-out: Cell growth inhibition %
SK-MEL-28 = assay: NCI one-dose assay; type: cell-based; conditions: Homo sapiens, SK-MEL-28, Melanoma, read-out: Cell growth inhibition %
MCF7 = assay: NCI one-dose assay; type: cell-based; conditions: Homo sapiens, MCF7, Breast cancer, read-out: Cell growth inhibition %
M14 = assay: NCI one-dose assay; type: cell-based; conditions: Homo sapiens, M14, Melanoma, read-out: Cell growth inhibition %
COLO 205 = assay: NCI one-dose assay; type: cell-based; conditions: Homo sapiens, COLO 205, Colon cancer, read-out: Cell growth inhibition %
NCI-H226 = assay: NCI one-dose assay; type: cell-based; conditions: Homo sapiens, NCI-H226, Non-small cell lung cancer, read-out: Cell growth inhibition %
EKVX [4] = assay: NCI one-dose assay; type: cell-based; conditions: Homo sapiens, Non-small cell lung cancer, read-out: Cell growth inhibition %
ACHN [5] = assay: NCI one-dose assay; type: cell-based; conditions: Homo sapiens, Renal cancer, read-out: Cell growth inhibition %
PC-3 = assay: NCI one-dose assay; type: cell-based; conditions: Homo sapiens, PC-3, Prostate cancer, read-out: Cell growth inhibition %
U251 = assay: NCI one-dose assay; type: cell-based; conditions: Homo sapiens, U-251, U251, CNS cancer, read-out: Cell growth inhibition %
NCI-H322M = assay: NCI one-dose assay; type: cell-based; conditions: Homo sapiens, Non-small cell lung cancer, read-out: Cell growth inhibition %
SF-295 = assay: NCI one-dose assay; type: cell-based; conditions: Homo sapiens, SF-295, CNS cancer, read-out: Cell growth inhibition %
SF-268 [6] = assay: NCI one-dose assay; type: cell-based; conditions: Homo sapiens, SF-268, CNS cancer, read-out: Cell growth inhibition %
NCI-H522 = assay: NCI one-dose assay; type: cell-based; conditions: Homo sapiens, NCI-H522, Non-small cell lung cancer, read-out: Cell growth inhibition %

`O/N=C(\CSc1nnc(-c2c[nH]c3ccccc23)n1-c1ccccc1)c1ccc(Br)cc1` [Compound 7i, (Z)-2-((5-(1H-Indol-3-yl)-4-phenyl-4H-1,2,4-triazol-3-yl)thio)-1-(4-bromophenyl) Ethanone Oxime] was tested, and the “TGI Conc. per Cell Lines” value (CAKI-1; CAKI-1, Renal cancer) was 8.10 µM, the LC50 (CAKI-1; CAKI-1, Renal cancer, 48 h) was 38 µM and the GI50 (CAKI-1; CAKI-1, Renal cancer) was 2.63 µM. It also gave a CC50 (SF-268 [1]; SF-268, CNS cancer, 48 h) of over 100 µM, a GI50 (SF-268 [1]; SF-268, CNS cancer) of 2.37 µM and an inhibition at 10 µM (NCI 60 cell lines; eight cell lines) of 86 to 99%. The inhibition at 10 µM (NCI 60 cell lines; forty-nine cell lines with complete cell death) was 106 to 200%, the inhibition at 10 µM (HOP-92) was 111% and the “Cell growth inhibition %” value (A498; A498, Renal cancer, 10 µM) was 37.85%. The inhibition at 10 µM (A498) was 38%, the “Cell growth inhibition %” value (786-0; 786-0, Renal cancer, 10 µM) was 65.25% and the inhibition at 10 µM (786-0) was 65%. It also gave an inhibition at 10 µM (UO-31) of 96.4%, a CC50 (MALME-3M; Melanoma, 48 h) of 87 µM and a GI50 (MALME-3M; Melanoma) of 3.22 µM. For the same molecule, the “TGI Conc. per Cell Lines” value (MALME-3M; Melanoma) was 14.30 µM, the CC50 (K-562; K-562, Leukemia, 48 h) was over 100 µM and the GI50 (K-562; K-562, Leukemia) was 2.22 µM. The CC50 (EKVX [2]; Non-small cell lung cancer, 48 h) was 34.2 µM, the GI50 (EKVX [2]; Non-small cell lung cancer) was 2.6 µM and the “TGI Conc. per Cell Lines” value (EKVX [2]; Non-small cell lung cancer) was 9.09 µM. The LC50 (ACHN [3]; Renal cancer, 48 h) was 24.9 µM, the GI50 (ACHN [3]; Renal cancer) was 2.53 µM and the “TGI Conc. per Cell Lines” value (ACHN [3]; Renal cancer) was 7.05 µM. For the same molecule, the GI50 (Renal cancer subpanel; average sensitivity of all cell lines of the Renal cancer subpanel) was 2.87 µM, the “GI50 Selectivity Ratio (MID a/MID b)” value (Renal cancer subpanel) was 0.98 and the inhibition at 10 µM (NCI-H460) was 122%. The inhibition at 10 µM (A549/ATCC) was 118%, the inhibition at 10 µM (OVCAR-3) was 99.3% and the inhibition at 10 µM (RPMI-8226) was 113%. It also gave an inhibition at 10 µM (LOX IMVI) of 187%, an inhibition at 10 µM (HL-60(TB)) of 136% and an inhibition at 10 µM (SK-MEL-28) of 126%. For the same molecule, the inhibition at 10 µM (MCF7) was 143%, the inhibition at 10 µM (M14) was 168% and the inhibition at 10 µM (COLO 205) was 141%. The inhibition at 10 µM (NCI-H226) was 93.7%, the inhibition at 10 µM (EKVX [4]) was 163% and the inhibition at 10 µM (ACHN [5]) was 184%. For the same molecule, the inhibition at 10 µM (PC-3) was 164%, the inhibition at 10 µM (U251) was 90.3% and the inhibition at 10 µM (NCI-H322M) was 173%. For the same molecule, the inhibition at 10 µM (SF-295) was 115%, the inhibition at 10 µM (SF-268 [6]) was 156% and the inhibition at 10 µM (NCI-H522) was 130%.
With `O/N=C(\CSc1nnc(-c2c[nH]c3ccccc23)n1-c1ccccc1)c1ccc(Cl)cc1` [Compound 7j, (Z)-2-((5-(1H-Indol-3-yl)-4-phenyl-4H-1,2,4-triazol-3-yl)thio)-1-(4-chlorophenyl) Ethanone Oxime] the “TGI Conc. per Cell Lines” value (CAKI-1; CAKI-1, five dose levels) was 12.4 µM, the LC50 (CAKI-1; CAKI-1, five dose levels) was over 100 µM and the GI50 (CAKI-1; CAKI-1, five dose levels) was 2.93 µM. The GI50 (SF-268 [1]; SF-268, five dose levels) was 2.11 µM, the CC50 (SF-268 [1]; SF-268, five dose levels) was over 100 µM and the “TGI Conc. per Cell Lines” value (SF-268 [1]; SF-268, five dose levels) was 5.08 µM. For the same molecule, the inhibition at 10 µM (NCI 60 cell lines; six cell lines with moderate activity) was 52 to 66%, the inhibition at 10 µM (NCI 60 cell lines; twenty-eight cell lines with total cell death) was 102 to 200% and the inhibition at 10 µM (NCI 60 cell lines; twenty-four cell lines) was 69.5 to 99.3%. The inhibition at 10 µM (HOP-92) was 108%, the inhibition at 10 µM (A498) was 16.3% and the inhibition at 10 µM (786-0) was 65.9%. The inhibition at 10 µM (UO-31) was 65.6%, the GI50 (MALME-3M; five dose levels) was 4.99 µM and the CC50 (MALME-3M; five dose levels) was over 100 µM. The “TGI Conc. per Cell Lines” value (MALME-3M; five dose levels) was 27.5 µM, the GI50 (K-562; K-562, five dose levels) was 2.55 µM and the CC50 (K-562; K-562, five dose levels) was over 100 µM. For the same molecule, the GI50 (EKVX [2]; five dose levels) was 3.21 µM, the CC50 (EKVX [2]; five dose levels) was over 100 µM and the “TGI Conc. per Cell Lines” value (EKVX [2]; five dose levels) was 19.2 µM. For the same molecule, the LC50 (ACHN [3]; five dose levels) was over 100 µM, the GI50 (ACHN [3]; five dose levels) was 3.69 µM and the “TGI Conc. per Cell Lines” value (ACHN [3]; five dose levels) was 14.5 µM. The GI50 (Renal cancer subpanel; Renal cancer, average sensitivity of all cell lines of the subpanel) was 5.23 µM, the “GI50 Selectivity Ratio (MID a/MID b)” value (Renal cancer subpanel) was 0.69 and the inhibition at 10 µM (NCI-H460) was 89.5%. It also gave an inhibition at 10 µM (A549/ATCC) of 78.5%, an inhibition at 10 µM (OVCAR-3) of 65.8% and an inhibition at 10 µM (RPMI-8226) of 113%. The inhibition at 10 µM (LOX IMVI) was 189%, the inhibition at 10 µM (HL-60(TB)) was 126% and the inhibition at 10 µM (SK-MEL-28) was 78.8%. The inhibition at 10 µM (MCF7) was 96.7%, the inhibition at 10 µM (M14) was 147% and the inhibition at 10 µM (COLO 205) was 89.8%. It also gave an inhibition at 10 µM (NCI-H226) of 85.7%, an inhibition at 10 µM (EKVX [4]) of 98% and an inhibition at 10 µM (ACHN [5]) of 96.7%. It also gave an inhibition at 10 µM (PC-3) of 138%, an inhibition at 10 µM (U251) of 69.5% and an inhibition at 10 µM (NCI-H322M) of 149%. The inhibition at 10 µM (SF-295) was 85.9%, the inhibition at 10 µM (SF-268 [6]) was 149% and the inhibition at 10 µM (NCI-H522) was 87.6%.
